Patent US9499550B2 (BRISTOL-MYERS SQUIBB COMPANY, priority 2012, dated 2016)

What was measured:
[1] = test system: HCV genotype 1a (H77 strain) replicon in HUH-7 cells; assay: HCV replicon luciferase reporter assay, genotype 1a; type: cell-based; settings: Hepatitis C virus, Huh-7, 72 h, HCV genotype 1a replicon luciferase assay, 3 days incubation, range class, read-out: LE_1a (EC50, range)
In short: (§1)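 Replicon inhibition for both genotypes was measured as Renilla luciferase signal (EnduRen, 7.5 μM final, 2 h) after 3-day, 37° C exposure of replicon-bearing HUH-7 cells in 4% FCS DMEM, 0.5% DMSO. The 1b construct carries S1179I; the 1a H77 construct carries P1496L and S2204I. Twenty-point, 3-fold dilutions were fitted four-parametrically for EC50, and CC50 was taken from multiplexed Cell Titer-Blue.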

[2] = test system: HCV genotype 1b (Con1) replicon in HUH-7 cells; assay: HCV replicon luciferase reporter assay, genotype 1b; type: cell-based; settings: Hepatitis C virus, Huh-7, 72 h, HCV genotype 1b replicon luciferase assay, 3 days incubation, range class, read-out: LE_1b (EC50, range)
In short: as §1

Row | Structure (SMILES) | EC50 [1] | EC50 [2]
1 | COc1ccc2c(O[C@@H]3C[C@H]4C(=O)N[C@]5(C(=O)NS(=O)(=O)C6(C)CC6)C[C@H]5/C=C\CC[C@H](C)C[C@@H](C)[C@H](NC(=O)OC(C)(C)C)C(=O)N4C3)nc(N(C)C)nc2c1 [Compound 3001, tert-butyl ((2R,6S,7R,9S,13aS,14aR,16aS,Z)-2-((2-(dimethylamino)-7-methoxyquinazolin-4-yl)oxy)-7,9-dimethyl-14a-(((1-methylcyclopropyl)sulfonyl)carbamoyl)-5,16-dioxo-1,2,3,5,6,7,8,9,10,11,13a,14,14a,15,16,16a-hexadecahydrocyclopropa[e]pyrrolo[1,2-a][1,4]diazacyclopentadecin-6-yl)carbamate] | < 5.46 nM | < 5.46 nM
2 | COc1ccc2c(O[C@@H]3C[C@H]4C(=O)N[C@]5(C(=O)NS(=O)(=O)C6(C)CC6)C[C@H]5/C=C\CC[C@@H](C)C[C@@H](C)[C@H](NC(=O)OC(C)(C)C)C(=O)N4C3)nc(N(C)C)nc2c1 [Compound 3002, tert-butyl ((2R,6S,7R,9R,13aS,14aR,16aS,Z)-2-((2-(dimethylamino)-7-methoxyquinazolin-4-yl)oxy)-7,9-dimethyl-14a-(((1-methylcyclopropyl)sulfonyl)carbamoyl)-5,16-dioxo-1,2,3,5,6,7,8,9,10,11,13a,14,14a,15,16,16a-hexadecahydrocyclopropa[e]pyrrolo[1,2-a][1,4]diazacyclopentadecin-6-yl)carbamate] | < 5.46 nM | < 5.46 nM
3 | COc1ccc2c(O[C@@H]3C[C@H]4C(=O)N[C@]5(C(=O)NS(=O)(=O)C6(C)CC6)C[C@H]5/C=C\CC[C@H](C)C[C@@H](C)[C@H](NC(=O)OC(C)(C)C(F)(F)F)C(=O)N4C3)nc(N(C)C)nc2c1 [Compound 3003, 1,1,1-trifluoro-2-methylpropan-2-yl((2R,6S,7R,9S,13aS,14aR,16aS,Z)-2-((2-(dimethylamino)-7-methoxyquinazolin-4-yl)oxy)-7,9-dimethyl-14a-(((1-methylcyclopropyl)sulfonyl)carbamoyl)-5,16-dioxo-1,2,3,5,6,7,8,9,10,11,13a,14,14a,15,16,16a-hexadecahydrocyclopropa[e]pyrrolo[1,2-a][1,4]diazacyclopentadecin-6-yl)carbamate] | < 5.46 nM | < 5.46 nM
4 | COc1ccc2c(O[C@@H]3C[C@H]4C(=O)N[C@]5(C(=O)NS(=O)(=O)C6(C)CC6)C[C@H]5/C=C\CC[C@@H](C)C[C@@H](C)[C@H](NC(=O)OC(C)(C)C(F)(F)F)C(=O)N4C3)nc(N(C)C)nc2c1 [Compound 3004, 1,1,1-trifluoro-2-methylpropan-2-yl((2R,6S,7R,9R,13aS,14aR,16aS,Z)-2-((2-(dimethylamino)-7-methoxyquinazolin-4-yl)oxy)-7,9-dimethyl-14a-(((1-methylcyclopropyl)sulfonyl)carbamoyl)-5,16-dioxo-1,2,3,5,6,7,8,9,10,11,13a,14,14a,15,16,16a-hexadecahydrocyclopropa[e]pyrrolo[1,2-a][1,4]diazacyclopentadecin-6-yl)carbamate] | < 5.46 nM | < 5.46 nM
5 | COc1ccc2c(O[C@@H]3C[C@H]4C(=O)N[C@]5(C(=O)NS(=O)(=O)C6(CF)CC6)C[C@H]5/C=C\CC[C@H](C)C[C@@H](C)[C@H](NC(=O)OC(C)(C)C)C(=O)N4C3)nc(N(C)C)nc2c1 [Compound 3005, tert-butyl ((2R,6S,7R,9S,13aS,14aR,16aS,Z)-2-((2-(dimethylamino)-7-methoxyquinazolin-4-yl)oxy)-14a-(((1-(fluoromethyl)cyclopropyl)sulfonyl)carbamoyl)-7,9-dimethyl-5,16-dioxo-1,2,3,5,6,7,8,9,10,11,13a,14,14a,15,16,16a-hexadecahydrocyclopropa[e]pyrrolo[1,2-a][1,4]diazacyclopentadecin-6-yl)carbamate] | 4.82 to 103 nM | 4.82 to 103 nM
6 | COc1ccc2c(O[C@@H]3C[C@H]4C(=O)N[C@]5(C(=O)NS(=O)(=O)C6(CF)CC6)C[C@H]5/C=C\CC[C@@H](C)C[C@@H](C)[C@H](NC(=O)OC(C)(C)C)C(=O)N4C3)nc(N(C)C)nc2c1 [Compound 3006, tert-butyl ((2R,6S,7R,9R,13aS,14aR,16aS,Z)-2-((2-(dimethylamino)-7-methoxyquinazolin-4-yl)oxy)-14a-(((1-(fluoromethyl)cyclopropyl)sulfonyl)carbamoyl)-7,9-dimethyl-5,16-dioxo-1,2,3,5,6,7,8,9,10,11,13a,14,14a,15,16,16a-hexadecahydrocyclopropa[e]pyrrolo[1,2-a][1,4]diazacyclopentadecin-6-yl)carbamate] | < 5.46 nM | < 5.46 nM
7 | COc1ccc2c(O[C@@H]3C[C@H]4C(=O)N[C@]5(C(=O)NS(=O)(=O)C6(C)CC6)C[C@H]5/C=C\CC[C@H](C)C[C@@H](C)[C@H](NC(=O)OC(C)(C)C)C(=O)N4C3)nc(-c3ccc(OC(C)C)cc3)nc2c1 [Compound 3007, tert-butyl ((2R,6S,7R,9S,13aS,14aR,16aS,Z)-2-((2-(4-isopropoxyphenyl)-7-methoxyquinazolin-4-yl)oxy)-7,9-dimethyl-14a-(((1-methylcyclopropyl)sulfonyl)carbamoyl)-5,16-dioxo-1,2,3,5,6,7,8,9,10,11,13a,14,14a,15,16,16a-hexadecahydrocyclopropa[e]pyrrolo[1,2-a][1,4]diazacyclopentadecin-6-yl)carbamate] | < 5.46 nM | < 5.46 nM
8 | COc1ccc2c(O[C@@H]3C[C@H]4C(=O)N[C@]5(C(=O)NS(=O)(=O)C6(C)CC6)C[C@H]5/C=C\CC[C@@H](C)C[C@@H](C)[C@H](NC(=O)OC(C)(C)C)C(=O)N4C3)nc(-c3ccc(OC(C)C)cc3)nc2c1 [Compound 3008, tert-butyl ((2R,6S,7R,9R,13aS,14aR,16aS,Z)-2-((2-(4-isopropoxyphenyl)-7-methoxyquinazolin-4-yl)oxy)-7,9-dimethyl-14a-(((1-methylcyclopropyl)sulfonyl)carbamoyl)-5,16-dioxo-1,2,3,5,6,7,8,9,10,11,13a,14,14a,15,16,16a-hexadecahydrocyclopropa[e]pyrrolo[1,2-a][1,4]diazacyclopentadecin-6-yl)carbamate] | < 5.46 nM | < 5.46 nM
9 | COc1ccc2c(O[C@@H]3C[C@H]4C(=O)N[C@]5(C(=O)NS(=O)(=O)C6(CF)CC6)C[C@H]5/C=C\CC[C@H](C)C[C@@H](C)[C@H](NC(=O)OC(C)(C)C(F)(F)F)C(=O)N4C3)nc(N(C)C)nc2c1 [Compound 3009, 1,1,1-trifluoro-2-methylpropan-2-yl((2R,6S,7R,9S,13aS,14aR,16aS,Z)-2-((2-(dimethylamino)-7-methoxyquinazolin-4-yl)oxy)-14a-(((1-(fluoromethyl)cyclopropyl)sulfonyl)carbamoyl)-7,9-dimethyl-5,16-dioxo-1,2,3,5,6,7,8,9,10,11,13a,14,14a,15,16,16a-hexadecahydrocyclopropa[e]pyrrolo[1,2-a][1,4]diazacyclopentadecin-6-yl)carbamate] | 4.82 to 103 nM | 4.82 to 103 nM
10 | COc1ccc2c(O[C@@H]3C[C@H]4C(=O)N[C@]5(C(=O)NS(=O)(=O)C6(CF)CC6)C[C@H]5/C=C\CC[C@@H](C)C[C@@H](C)[C@H](NC(=O)OC(C)(C)C(F)(F)F)C(=O)N4C3)nc(N(C)C)nc2c1 [Compound 3010, 1,1,1-trifluoro-2-methylpropan-2-yl((2R,6S,7R,9R,13aS,14aR,16aS,Z)-2-((2-(dimethylamino)-7-methoxyquinazolin-4-yl)oxy)-14a-(((1-(fluoromethyl)cyclopropyl)sulfonyl)carbamoyl)-7,9-dimethyl-5,16-dioxo-1,2,3,5,6,7,8,9,10,11,13a,14,14a,15,16,16a-hexadecahydrocyclopropa[e]pyrrolo[1,2-a][1,4]diazacyclopentadecin-6-yl)carbamate] | < 5.46 nM | < 5.46 nM
11 | COc1ccc2c(O[C@@H]3C[C@H]4C(=O)N[C@]5(C(=O)NS(=O)(=O)C6(C)CC6)C[C@H]5/C=C\CC[C@H](C)C[C@@H](C)[C@H](NC(=O)OC(C)(C)C(F)(F)F)C(=O)N4C3)nc(-c3ccc(OC(C)C)cc3)nc2c1 [Compound 3011, 1,1,1-trifluoro-2-methylpropan-2-yl((2R,6S,7R,9S,13aS,14aR,16aS,Z)-2-((2-(4-isopropoxyphenyl)-7-methoxyquinazolin-4-yl)oxy)-7,9-dimethyl-14a-(((1-methylcyclopropyl)sulfonyl)carbamoyl)-5,16-dioxo-1,2,3,5,6,7,8,9,10,11,13a,14,14a,15,16,16a-hexadecahydrocyclopropa[e]pyrrolo[1,2-a][1,4]diazacyclopentadecin-6-yl)carbamate] | 4.82 to 103 nM | < 5.46 nM
12 | COc1ccc2c(O[C@@H]3C[C@H]4C(=O)N[C@]5(C(=O)NS(=O)(=O)C6(C)CC6)C[C@H]5/C=C\CC[C@@H](C)C[C@@H](C)[C@H](NC(=O)OC(C)(C)C(F)(F)F)C(=O)N4C3)nc(-c3ccc(OC(C)C)cc3)nc2c1 [Compound 3012, 1,1,1-trifluoro-2-methylpropan-2-yl((2R,6S,7R,9R,13aS,14aR,16aS,Z)-2-((2-(4-isopropoxyphenyl)-7-methoxyquinazolin-4-yl)oxy)-7,9-dimethyl-14a-(((1-methylcyclopropyl)sulfonyl)carbamoyl)-5,16-dioxo-1,2,3,5,6,7,8,9,10,11,13a,14,14a,15,16,16a-hexadecahydrocyclopropa[e]pyrrolo[1,2-a][1,4]diazacyclopentadecin-6-yl)carbamate] | < 5.46 nM | < 5.46 nM
